1 molecule from patent publication US9427458B2, “Methods for inhibiting cancer cell proliferation” (Consejo Nacional de Investigaciones Cientificas y Tecnicas, …, priority 2010, dated 2016) can be followed below.

“Also recorded” adds a separate entry of the source.

One assay has as its system ErbB-2. The assay is described as follows: ErbB-2 cellular localization (subcellular fractionation/immunoblot, confocal microscopy) in T47D cells. Type of assay: cell-based, human. The conditions noted are these: MPA treatment of T47D cells, 15 to 60 min. The method, then:
Lysates were prepared from cells subjected to the different treatments and proteins were subjected to SDS-PAGE as previously described (21). Membranes were immunoblotted with the antibodies detailed in each experiment. When phospho(p)-protein antibodies were used, filters were reprobed with total protein antibodies. Signal intensities of pErbB-2, pStat3, pSrc, pPR, pJak1, and pJak2 bands were analyzed by densitometry and normalized to total protein bands. Similarly, signal intensities of PR, cyclin D1, Stat3, and ErbB-2 bands were normalized to actin or β tubulin bands. […]
Cells grown on glass coverslips were fixed and permeabilized in ice-cold methanol and were then blocked with PBS 1% BSA. ErbB-2 was localized using either a rabbit polyclonal (C-18) or a mouse monoclonal (F-11) ErbB-2 antibody (Santa Cruz Biotechnology) and Stat3 was detected using a mouse monoclonal antibody (124H6, Cell Signaling), followed by incubation with a goat anti-rabbit IgG-Alexa 488 (Molecular Probes, Eugene, Oreg.) secondary antibody for ErbB-2 (C-18) and with a rhodamine conjugated goat anti-mouse secondary antibody (Jackson ImmunoResearch Laboratories, West Grove, Pa.) for both ErbB2 (F-11) and Stat3. […] When cells were transfected with hErbB-2ΔNLS, green fluorescent protein from this expression vector was visualized by direct fluorescence imaging. […]
In general terms: A western blot detects proteins with antibodies after separation by electrophoresis.

The subject of assay [1] is Stat3. The assay is described as follows: Stat3 phosphorylation and nuclear translocation in C4HD cells. The format is cell-based, mouse. The settings on record: MPA treatment of C4HD cells. The protocol: (§1) Lysates were prepared from cells subjected to the different treatments and proteins were subjected to SDS-PAGE as previously described (21). Membranes were immunoblotted with the antibodies detailed in each experiment. When phospho(p)-protein antibodies were used, filters were reprobed with total protein antibodies. Signal intensities of pErbB-2, pStat3, pSrc, pPR, pJak1, and pJak2 bands were analyzed by densitometry and normalized to total protein bands. Similarly, signal intensities of PR, cyclin D1, Stat3, and ErbB-2 bands were normalized to actin or β tubulin bands. […] The NEPER Nuclear and Cytoplasmic Extraction Reagents technique (Pierce Biotechnology) was performed as per manufacturer's instructions. Nuclear association between ErbB-2 and Stat3 was studied by performing coimmunoprecipitation experiments using 200 μg of nuclear protein lysates as described (22).
siRNAs targeting ErbB-2, Stat3, and Pr were synthesized by Dharmacon, Inc (Lafayatte, Colo.) (ErbB-2siRNA: 5′GAUGGUGCUUACUCAUUGA3′ (SEQ ID NO:8), designed to specifically knockdown mouse ErbB2 but not human ErbB-2; Stat3siRNA: 5′[…]3′ (SEQ ID NO:9) targets mouse Stat3; and 5′[…]3′ (SEQ ID NO:10) targets human Stat3; PRsiRNA: 5′[…]3′(SEQ ID NO:11)). […] Transfection of siRNAs duplexes was performed by using the DharmaFECT transfection reagent following the manufacturer's direction for 3 days. For reconstitution experiments cotransfection of 25 nM ErbB-2 siRNA with 2 μg expression vectors was performed using DharmaFECT Duo transfection reagent (Dharmacon).
(§2) Cells grown on glass coverslips were fixed and permeabilized in ice-cold methanol and were then blocked with PBS 1% BSA. ErbB-2 was localized using either a rabbit polyclonal (C-18) or a mouse monoclonal (F-11) ErbB-2 antibody (Santa Cruz Biotechnology) and Stat3 was detected using a mouse monoclonal antibody (124H6, Cell Signaling), followed by incubation with a goat anti-rabbit IgG-Alexa 488 (Molecular Probes, Eugene, Oreg.) secondary antibody for ErbB-2 (C-18) and with a rhodamine conjugated goat anti-mouse secondary antibody (Jackson ImmunoResearch Laboratories, West Grove, Pa.) for both ErbB2 (F-11) and Stat3. Negative controls were carried out using PBS instead of primary antibodies, or 5× competitive peptide (Santa Cruz Biotechnology) when ErbB-2 (C-18) was used. When cells were transfected with hErbB-2ΔNLS, green fluorescent protein from this expression vector was visualized by direct fluorescence imaging. […] FIGS. 2A, 3B and C, illustrate a few cells representative of the ones examined. Cells were analyzed using a Nikon Eclipse E800 confocal laser microscopy system (22).

Assay [2] has as its system Stat3. The experiment in a line: Stat3 phosphorylation and nuclear translocation in T47D cells. The format is cell-based, human. The conditions noted are these: MPA treatment of T47D cells. The method, then: as §1, §2
For assay [3], the system named is cyclin D1 promoter. The experiment in a line: Human cyclin D1 promoter luciferase reporter in C4HD cells. Type of assay: cell-based, mouse. The settings on record: MPA 24 h, versus cells untreated with MPA. The source says: The luciferase reporter plasmid downstream the cyclin D1 human promoter region (−1745 cyclin D1-luc), and constructs truncated at positions −963, −261, −141, were kindly provided by Dr. R. Pestell (Northwestern University Medical School, Chicago, Ill.). These constructs were generated by truncation of the 1745-bp length promoter in order to sequentially exclude 5′ regions of the promoter. The −963 cyclin D1-luc construct excludes one GAS site (−984), the −261 cyclin D1-luc excludes three GAS sites (−984, −568 and −475) and the −141 cyclin D1-luc excludes four GAS sites (−984, −568, −475 and −239). The empty vector pA3 Luc was also provided by Dr. R. Pestell. The luciferase reporter plasmid containing four copies of the m67 high-affinity binding site (p4×m67-tk-luc) and the pTATA-tk-Luc reporter lacking the m67 insertion were a gift from Dr J. Darnell (The Rockefeller University, New York, N.Y.). The Renilla luciferase expression plasmid RLCMV was obtained from Promega (Madison, Wis.). Dominant negative Stat3 expression vector, Stat3Y705-F, which carries a tyrosine to phenylalanine substitution at codon 705 that reduces phosphorylation on tyrosine of the wild-type Stat3 protein, therefore inhibiting both dimerization and DNA binding of Stat3 (6,7,16) was kindly provided by Dr J. Darnell (New York, USA). The empty pcDNA3.1 vector was also a gift of Dr J. Darnell. Human wild-type ErbB-2 expression vector (hErbB-2WT) as well as the empty pMe18SM vector were a gift from by Dr. T. Yamamoto (University of Tokyo, Japan) (1). The GFP-tagged human ErbB-2 mutant which lacks the putative nuclear localization signal sequence (aa 676-KRRQQKIRKYTMRR-689) (SEQ ID NO:3), resulting in the sequence of KLM at the deletion junction (hErbB-2ΔNLS), was generously provided by Dr. M. C. Hung (The University of Texas M.D. Anderson Cancer Center, Houston, Tex.) (Giri et al., 2005). The empty pEGFP-N1 vector was obtained from BD Biosciences Clontech (Palo Alto, Calif.). The plasmid encoding the human wild-type hPR-B was kindly provided by Dr. K. Horwitz. In experiments assessing MPA capacity to induce the transcriptional activation of Stat3, C4HD and T47D cells were transiently transfected for 48 h with 1 μg of −1745 cyclin D1-luc reporter plasmid or the truncated −963, −261 and −141 constructs, or with 1 μg p4×m67-tk-luc and 10 ng of RL-CMV used to correct variations in transfection efficiency. As control, cells were transfected with 1 μg of either the pA3 Luc or pTATA-tk-Luc reporters. Cells were cotransfected with 2 μg of Stat3Y705-F when indicated. Total amount of transfected DNA was standardized by adding the empty pcDNA3.1 vector. […] Triplicate samples were analyzed for each datum point. Differences between experimental groups were analyzed by ANOVA followed by Tukey test between groups.
(In general: Reporter assays use an easily measured gene product as a stand-in for the process of interest.)

For assay [4], the system named is cyclin D1 promoter. The experiment in a line: Human cyclin D1 promoter luciferase reporter in T47D cells. The conditions noted are these: MPA 24 h, versus cells untreated with MPA. The format is cell-based. The source says: The luciferase reporter plasmid downstream the cyclin D1 human promoter region (−1745 cyclin D1-luc), and constructs truncated at positions −963, −261, −141, were kindly provided by Dr. R. Pestell (Northwestern University Medical School, Chicago, Ill.). These constructs were generated by truncation of the 1745-bp length promoter in order to sequentially exclude 5′ regions of the promoter. The −963 cyclin D1-luc construct excludes one GAS site (−984), the −261 cyclin D1-luc excludes three GAS sites (−984, −568 and −475) and the −141 cyclin D1-luc excludes four GAS sites (−984, −568, −475 and −239). The empty vector pA3 Luc was also provided by Dr. R. Pestell. The luciferase reporter plasmid containing four copies of the m67 high-affinity binding site (p4×m67-tk-luc) and the pTATA-tk-Luc reporter lacking the m67 insertion were a gift from Dr J. Darnell (The Rockefeller University, New York, N.Y.). The Renilla luciferase expression plasmid RLCMV was obtained from Promega (Madison, Wis.). […] Triplicate samples were analyzed for each datum point. Differences between experimental groups were analyzed by ANOVA followed by Tukey test between groups.

On to `CC(=O)O[C@]1(C(C)=O)CC[C@H]2[C@@H]3C[C@H](C)C4=CC(=O)CC[C@]4(C)[C@H]3CC[C@@]21C` [MPA, Medroxyprogesterone acetate], for which the ErbB-2 nuclear translocation result with ErbB-2 is “resulted in ErbB-2 nuclear localization; also recorded: induced a strong ErbB-2 protein nuclear translocation”. Also, the Stat3 nuclear translocation result in the assay with Stat3 [1] (30 and 60 min) was “induced nuclear translocation of Stat3; also recorded: present at the nuclear compartment and strongly phosphorylated at Tyr 705”; with Stat3 [2] (30 and 60 min), “induced nuclear translocation of Stat3; also recorded: present at the nuclear compartment and strongly phosphorylated at Tyr 705”. Also, the “nuclear colocalization of ErbB-2 and Stat3” value with Stat3 [1] (30 min, confocal) was “strong nuclear colocalization”; with Stat3 [2] (30 min, confocal), “strong nuclear colocalization”. The “increase in cyclin D1 promoter activity” value in the assay with cyclin D1 promoter [3] and in the assay on cyclin D1 promoter [4] was 3 fold throughout.
